Measured values reported in ChEMBL document CHEMBL5380841, “Discovery and Binding Mechanism of Pyrazoloisoquinoline-Based Novel β-Arrestin Inverse Agonists of the Kappa-Opioid Receptor” (J Med Chem, 2023).
Activity calls are given as the source filed them. The calls are words filed in the database; no cut-off is given here.

Biological target: T1, Kappa-type opioid receptor (Homo sapiens, UniProt P41145)
T1 sequence (P41145 whole entry): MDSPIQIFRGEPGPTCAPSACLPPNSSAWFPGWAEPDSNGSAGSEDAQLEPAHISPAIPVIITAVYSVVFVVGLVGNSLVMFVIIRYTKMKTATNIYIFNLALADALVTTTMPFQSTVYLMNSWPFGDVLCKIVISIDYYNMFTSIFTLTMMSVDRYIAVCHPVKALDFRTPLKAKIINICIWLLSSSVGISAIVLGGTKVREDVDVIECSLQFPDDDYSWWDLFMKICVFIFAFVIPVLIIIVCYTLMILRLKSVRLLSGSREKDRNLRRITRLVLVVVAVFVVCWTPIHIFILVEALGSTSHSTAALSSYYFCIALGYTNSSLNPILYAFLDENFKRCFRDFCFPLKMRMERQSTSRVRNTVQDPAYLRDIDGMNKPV
Experiment: Inverse agonist activity at human KOR expressed in human HTLA cells assessed as beta arrestin-2 recruitment by ONE-Glo luciferase assay
Type: functional, cell-based
Conditions: not given
`COc1cccc(Cn2nc(CNCc3ccccc3Oc3ccccc3)c3c4cc(OC)c(OC)cc4c(-c4ccccc4Cl)nc32)c1` gave an EC50 of 54.5 nM.
For `COc1cccc(Cn2nc(CNCCc3ccc4ccccc4c3)c3c4cc(OC)c(OC)cc4c(-c4ccccc4Cl)nc32)c1`, the EC50 was 69.9 nM.
For `COc1cccc(CCNCc2nn(Cc3cccc(OC)c3)c3nc(-c4ccccc4Cl)c4cc(OC)c(OC)cc4c23)c1`, the EC50 was 1060 nM.
`COc1cccc(Cn2nc(CNCc3ccc(Oc4ccccc4)cc3)c3c4cc(OC)c(OC)cc4c(-c4ccccc4Cl)nc32)c1` gave an EC50 of 338 nM.
Compound `COc1cc2c(-c3ccccc3Cl)nc3c(c(CNCc4cccc(Oc5ccccc5)c4)nn3CC3CCN(C(=O)OC(C)(C)C)CC3)c2cc1OC` has an EC50 of 674 nM.
Work on `COc1cccc(Cn2nc(CNCc3ccc4ccccc4c3)c3c4cc(OC)c(OC)cc4c(-c4ccccc4Cl)nc32)c1` yielded an EC50 of 94.3 nM.

Biological target: T1, Kappa-type opioid receptor
Experiment: Inverse agonist activity at human KOR expressed in human HTLA cells assessed as beta arrestin-2 recruitment upto 10 uM by ONE-Glo luciferase assay
Type: functional, cell-based
Conditions: not given
With `COc1cccc(Cn2nc(CNc3ccc4ccccc4c3)c3c4cc(OC)c(OC)cc4c(-c4ccccc4Cl)nc32)c1` the Activity was “inactive”.
In the case of `COc1cccc(CNCc2nn(Cc3cccc(OC)c3)c3ncc4cc(OC)c(OC)cc4c23)c1`, the Activity is reported as “inactive”.
For `COc1cccc(Cn2nc(CNc3cccc(OC)c3)c3c4cc(OC)c(OC)cc4c(-c4ccccc4Cl)nc32)c1`, the Activity was “inactive”.
With `COc1cccc(CNCc2n[nH]c3nc(-c4ccccc4Cl)c4cc(OC)c(OC)cc4c23)c1` the Activity was “inactive”.

Species on record: Homo sapiens
Experiment: Selectivity ratio of EC50 for human DOR expressed in human HTLA cells assessed as beta arrestin-2 recruitment to EC50 for human KOR expressed in human HTLA cells assessed as beta arrestin-2 recruitment
Type: cell-based
Conditions: not given
`COc1cccc(Cn2nc(CNCCc3ccc4ccccc4c3)c3c4cc(OC)c(OC)cc4c(-c4ccccc4Cl)nc32)c1` showed a Ratio EC50 of 10.

Biological target: Delta-type opioid receptor (Homo sapiens, UniProt P41143)
Sequence (P41143 whole entry): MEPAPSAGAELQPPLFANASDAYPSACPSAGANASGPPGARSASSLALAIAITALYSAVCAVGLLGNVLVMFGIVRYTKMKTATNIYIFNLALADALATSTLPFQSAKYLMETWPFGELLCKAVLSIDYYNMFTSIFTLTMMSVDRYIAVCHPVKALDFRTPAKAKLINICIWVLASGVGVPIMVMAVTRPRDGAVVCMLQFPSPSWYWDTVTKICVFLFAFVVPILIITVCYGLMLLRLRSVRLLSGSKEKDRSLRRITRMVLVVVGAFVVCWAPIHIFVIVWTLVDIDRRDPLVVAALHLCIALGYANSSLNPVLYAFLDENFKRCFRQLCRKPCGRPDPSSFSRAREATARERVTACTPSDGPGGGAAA
Experiment: Inverse agonist activity at human DOR expressed in human HTLA cells assessed as beta arrestin-2 recruitment by ONE-Glo luciferase assay
Type: functional, cell-based
Conditions: not given
In the case of `COc1cccc(Cn2nc(CNCCc3ccc4ccccc4c3)c3c4cc(OC)c(OC)cc4c(-c4ccccc4Cl)nc32)c1`, the EC50 is reported as 691 nM.

Biological target: T1, Kappa-type opioid receptor
Experiment: Inverse agonist activity at human KOR expressed in human HTLA cells assessed as beta arrestin-2 recruitment at 10 uM by ONE-Glo luciferase assay relative to 1-(5-(2-Chlorophenyl)-7,8-dimethoxy-3-(3-methoxybenzyl)-3H-pyrazolo(3,4-c)isoquinolin-1-yl)-N-(3-methoxybenzyl)-methanamine
Type: functional, cell-based
Conditions: not given
For `COc1cccc(Cn2nc(CNc3ccc4ccccc4c3)c3c4cc(OC)c(OC)cc4c(-c4ccccc4Cl)nc32)c1`, the Activity was “inactive”.
With `COc1cccc(CNCc2nn(Cc3cccc(OC)c3)c3ncc4cc(OC)c(OC)cc4c23)c1` the Activity was “inactive”.
With `COc1cccc(Cn2nc(CNc3cccc(OC)c3)c3c4cc(OC)c(OC)cc4c(-c4ccccc4Cl)nc32)c1` the Activity was “inactive”.
With `COc1cccc(CNCc2n[nH]c3nc(-c4ccccc4Cl)c4cc(OC)c(OC)cc4c23)c1` the Activity was “inactive”.
With `COc1cccc(Cn2nc(CNCc3ccccc3Oc3ccccc3)c3c4cc(OC)c(OC)cc4c(-c4ccccc4Cl)nc32)c1` the Emax was -104%.
For `COc1cccc(Cn2nc(CNCCc3ccc4ccccc4c3)c3c4cc(OC)c(OC)cc4c(-c4ccccc4Cl)nc32)c1`, the Emax was -97.2%.
Compound `COc1cccc(CCNCc2nn(Cc3cccc(OC)c3)c3nc(-c4ccccc4Cl)c4cc(OC)c(OC)cc4c23)c1` has an Emax of -72.8%.
For `COc1cccc(Cn2nc(CNCc3ccc(Oc4ccccc4)cc3)c3c4cc(OC)c(OC)cc4c(-c4ccccc4Cl)nc32)c1`, the Emax was -91.8%.
In the case of `COc1cc2c(-c3ccccc3Cl)nc3c(c(CNCc4cccc(Oc5ccccc5)c4)nn3CC3CCN(C(=O)OC(C)(C)C)CC3)c2cc1OC`, the Emax is reported as -99.4%.
In the case of `COc1cccc(Cn2nc(CNCc3ccc4ccccc4c3)c3c4cc(OC)c(OC)cc4c(-c4ccccc4Cl)nc32)c1`, the Emax is reported as -97.6%.

Biological target: Mu-type opioid receptor (Homo sapiens) (UniProt P35372)
Sequence (P35372 whole entry): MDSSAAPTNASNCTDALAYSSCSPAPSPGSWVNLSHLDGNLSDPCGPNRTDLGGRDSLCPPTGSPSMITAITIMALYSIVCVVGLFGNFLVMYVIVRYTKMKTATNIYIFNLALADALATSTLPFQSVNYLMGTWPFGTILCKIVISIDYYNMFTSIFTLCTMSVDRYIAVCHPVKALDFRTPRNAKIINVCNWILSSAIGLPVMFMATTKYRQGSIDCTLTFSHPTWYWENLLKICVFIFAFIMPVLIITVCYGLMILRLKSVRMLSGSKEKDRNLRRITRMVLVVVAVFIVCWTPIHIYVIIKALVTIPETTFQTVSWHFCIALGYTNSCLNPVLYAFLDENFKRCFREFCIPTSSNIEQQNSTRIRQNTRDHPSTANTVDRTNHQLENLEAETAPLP
Experiment: Inverse agonist activity at MOR (unknown origin) expressed in HEK293T cells assessed as beta arrestin-2 recruitment upto 10 uM incubated for 20 mins by NanoBiT assay
Type: functional, cell-based
Conditions: not given
With `COc1cccc(Cn2nc(CNc3ccc4ccccc4c3)c3c4cc(OC)c(OC)cc4c(-c4ccccc4Cl)nc32)c1` the Activity was “inactive”.
With `COc1cccc(CNCc2nn(Cc3cccc(OC)c3)c3ncc4cc(OC)c(OC)cc4c23)c1` the Activity was “inactive”.
In the case of `COc1cccc(Cn2nc(CNc3cccc(OC)c3)c3c4cc(OC)c(OC)cc4c(-c4ccccc4Cl)nc32)c1`, the Activity is reported as “inactive”.
With `COc1cccc(CNCc2n[nH]c3nc(-c4ccccc4Cl)c4cc(OC)c(OC)cc4c23)c1` the Activity was “inactive”.
In the case of `COc1cccc(Cn2nc(CNCc3ccccc3Oc3ccccc3)c3c4cc(OC)c(OC)cc4c(-c4ccccc4Cl)nc32)c1`, the Activity is reported as “inactive”.
In the case of `COc1cccc(Cn2nc(CNCCc3ccc4ccccc4c3)c3c4cc(OC)c(OC)cc4c(-c4ccccc4Cl)nc32)c1`, the Activity is reported as “inactive”.
With `COc1cccc(CCNCc2nn(Cc3cccc(OC)c3)c3nc(-c4ccccc4Cl)c4cc(OC)c(OC)cc4c23)c1` the Activity was “inactive”.
For `COc1cccc(Cn2nc(CNCc3ccc(Oc4ccccc4)cc3)c3c4cc(OC)c(OC)cc4c(-c4ccccc4Cl)nc32)c1`, the Activity was “inactive”.
With `COc1cc2c(-c3ccccc3Cl)nc3c(c(CNCc4cccc(Oc5ccccc5)c4)nn3CC3CCN(C(=O)OC(C)(C)C)CC3)c2cc1OC` the Activity was “inactive”.
For `COc1cccc(Cn2nc(CNCc3ccc4ccccc4c3)c3c4cc(OC)c(OC)cc4c(-c4ccccc4Cl)nc32)c1`, the Activity was “inactive”.

Test system: not listed separately
Experiment: Permeability of the compound across blood brain barrier at pH 7.4 at 50 uM incubated for 4 hrs by PAMPA assay
Type: ADME
Conditions: read-out: permeability
`CNC(=C[N+](=O)[O-])NCCSCc1ccc(CN(C)C)o1.Cl` [RANITIDINE HYDROCHLORIDE] showed a Papp at 4 h, 50 µM of 0.12 ×10⁻⁶ cm/s.
With `CC(=O)[C@H]1CC[C@H]2[C@@H]3CCC4=CC(=O)CC[C@]4(C)[C@H]3CC[C@]12C` [PROGESTERONE] the Papp at 4 h, 50 µM was 37.8 ×10⁻⁶ cm/s.
